Assay results as given in patent publication US6333176A (Degussa Aktiengesellschaft, priority 1994, dated 2001).
Peptide text beside a SMILES is read from it.

The compounds below were run against T1, peptide amidase from Xanthomonas maltophilia (Stenotrophomonas maltophilia, UniProt Q8RJN5) (assay: Enzymatic conversion of unprotected amino acid amides, thin-layer chromatography). Conditions: substrate 10 mM.
T1 construct: wild type, not recombinant
T1 sequence (Q8RJN5 34-540): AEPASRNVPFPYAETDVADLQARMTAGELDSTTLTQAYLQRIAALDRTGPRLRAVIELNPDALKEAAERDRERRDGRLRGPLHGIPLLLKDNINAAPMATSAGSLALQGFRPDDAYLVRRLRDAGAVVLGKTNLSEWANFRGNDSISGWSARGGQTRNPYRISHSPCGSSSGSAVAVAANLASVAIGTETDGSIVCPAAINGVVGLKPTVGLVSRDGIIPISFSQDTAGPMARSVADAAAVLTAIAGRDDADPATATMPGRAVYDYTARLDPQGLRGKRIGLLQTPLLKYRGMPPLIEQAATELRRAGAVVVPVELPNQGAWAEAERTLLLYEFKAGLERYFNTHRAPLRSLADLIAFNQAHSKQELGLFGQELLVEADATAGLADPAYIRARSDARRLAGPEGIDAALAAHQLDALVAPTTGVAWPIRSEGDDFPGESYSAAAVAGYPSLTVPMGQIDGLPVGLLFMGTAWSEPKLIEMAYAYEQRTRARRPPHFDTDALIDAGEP
Format: biochemical
Method: (§1) 18 mU of peptide amidase (purification state after the gel filtration) per ml test batch was used for the substrate spectrum of peptide amidase from Xanthomonas maltophilia. The concentration of the tested substrates was 10 mM in the reaction batch. Unless otherwise indicated, L-amino acid derivatives were used. The incubation took place in 50 mM tris/HCl, pH 7.5 at 30° C. for 3 hours. The reaction was stopped by heating for 5 minutes at 95° C. The determination of activity took place using enzymatic determination of the released ammonia (Bergmeyer, U. (1985): Methods of Enzymatic Analysis, p. 459, VCH Verlagsgesellschaft, Weinheim).
The following thin-layer chromatographic methods were used for the analysis of the substrates and products cited in table 4d. To this end 1 μl of the stopped reaction batch was applied.

C[C@H](N)C(N)=O [H-Ala-NH2] and C[C@@H](N)C(N)=O [H-D-Ala-NH2] are the same in “Conversion (unprotected amino acid amides)” value: 0 for the first, 0 for the second.

CC(C)C[C@@H](N)C(N)=O [H-D-Leu-NH2] and CC[C@H](C)[C@H](N)C(N)=O [H-Ile-NH2] are the same in “Conversion (unprotected amino acid amides)” value: 0 for the first, 0 for the second.

C[C@H](N)C(N)=O [H-Ala-NH2] and C[C@@H](N)C(N)=O [H-D-Ala-NH2] are the same in “Conversion (unprotected amino acid amides, Table 4d)” value: 0 for the first, 0 for the second.

CC(C)C[C@@H](N)C(N)=O [H-D-Leu-NH2] and CC[C@H](C)[C@H](N)C(N)=O [H-Ile-NH2] are the same in “Conversion (unprotected amino acid amides, Table 4d)” value: 0 for the first, 0 for the second.

The compounds below were run against T1, peptide amidase from Xanthomonas maltophilia (assay: Substrate spectrum of peptide amidase, enzymatic determination of the released ammonia). Conditions: substrate 10 mM, 18 mU peptide amidase per ml, 50 mM tris/HCl pH 7.5, 30° C., 3 hours.
Format: biochemical
Method: as §1

Going from CC(=O)N[C@@H](CS)C(N)=O to CC(=O)NC(CC(C)(C)C)C(N)=O (racemic) [Ac-D,L-neopentylglycine amide, Nα -acetyl-DL-neopentylglycine Amide], the “Relative conversion (conversion of N-acetyl amino acid amides, Table 4b)” value rises from 82% to 131%.

Compared with CC(=O)N[C@@H](C)C(N)=O [Ac-Ala-NH2], CC(=O)N[C@@H](CCCNC(=N)N)C(N)=O [Ac-Arg-NH2] is lower in “Relative conversion (conversion of N-acetyl amino acid amides, Table 4b)” value: 182% for the first, 110% for the second.

Compared with CC(=O)N[C@@H](CCC(=O)O)C(N)=O [Ac-Glu-NH2], CC(=O)N[C@@H](Cc1c[nH]cn1)C(N)=O [Ac-His-NH2] is higher in “Relative conversion (conversion of N-acetyl amino acid amides, Table 4b)” value: 162% for the first, 177% for the second.

Going from CC[C@H](C)[C@H](NC(C)=O)C(N)=O [Ac-Ile-NH2] to CC(=O)N[C@@H](CCCCN)C(N)=O [Ac-Lys-NH2], the “Relative conversion (conversion of N-acetyl amino acid amides, Table 4b)” value rises from 6% to 175%.

Compared with CC(=O)N[C@@H](Cc1ccccc1)C(N)=O [Ac-Phe-NH2], CC(=O)N[C@H](C(N)=O)c1ccccc1 [Ac-Phg-NH2, N-acetylphenylglycine amide] is lower in “Relative conversion (conversion of N-acetyl amino acid amides, Table 4b)” value: 134% for the first, 28% for the second.

Compared with CC(=O)N1CCC[C@H]1C(N)=O [Ac-Pro-NH2], CC(=O)N[C@@H](CO)C(N)=O [Ac-Ser-NH2] is higher in “Relative conversion (conversion of N-acetyl amino acid amides, Table 4b)” value: 0% for the first, 58% for the second.

Compared with CC(=O)N[C@H](C(N)=O)[C@@H](C)O [Ac-Thr-NH2], CC(=O)N[C@@H](Cc1c[nH]c2ccccc12)C(N)=O [Ac-Trp-NH2] is higher in “Relative conversion (conversion of N-acetyl amino acid amides, Table 4b)” value: 21% for the first, 157% for the second.

First: CC(=O)N[C@@H](Cc1ccc(O)cc1)C(N)=O [Ac-Tyr-NH2]
Second: CC(=O)N[C@H](C(N)=O)C(C)C [Ac-Val-NH2]
The “Relative conversion (conversion of N-acetyl amino acid amides, Table 4b)” value of the first is higher: 123% for the first, 1% for the second.

For “N-acetyl-naphthylalanine amide [Ac-Nal-NH2]”, the “Relative conversion (conversion of N-acetyl amino acid amides, Table 4b)” value was 84%.

First: CSCCC(NC(N)=O)C(N)=O (racemic) [N-Carbamoyl-D,L-Met-NH2]
Second: COC(=O)NC(CCSC)C(N)=O (racemic) [N-Methoxy-D,L-Met-NH2, Nα -methoxycarbonyl-DL-methionine Amide]
The “Relative conversion (influence of protective group and adjacent amino acid, Table 4c)” value of the first is lower: 77% for the first, 109% for the second.

Going from CCOC(=O)NC(CCSC)C(N)=O (racemic) [N-Ethoxy-D,L-Met-NH2, Nα -ethoxycarbonyl-DL-methionine amide] to CSCC[C@H](NC(=O)[C@@H](N)CCCNC(=N)N)C(N)=O [Arg-Met-NH2] (H-Arg-Met-NH2), the “Relative conversion (influence of protective group and adjacent amino acid, Table 4c)” value rises from 124% to 125%.

Going from CC(=O)N[C@@H](Cc1ccc(O)cc1)C(N)=O [Ac-Tyr-NH2] to NCC(=O)N[C@@H](Cc1ccc(O)cc1)C(N)=O [Gly-Tyr-NH2] (H-Gly-Tyr-NH2), the “Relative conversion (influence of protective group and adjacent amino acid, Table 4c)” value rises from 123% to 174%.

Going from C[C@H](N)C(=O)N[C@@H](C)C(N)=O [Ala-Ala-NH2] (H-Ala-Ala-NH2) to CC(C)C[C@H](N)C(=O)N[C@@H](C)C(N)=O [Leu-Ala-NH2] (H-Leu-Ala-NH2), the “Relative conversion (influence of protective group and adjacent amino acid, Table 4c)” value rises from 211% to 217%.

Going from NC(=O)[C@H](Cc1ccc(O)cc1)NC(=O)c1ccccc1 [Bz-Tyr-NH2] to C[C@H](NC(=O)[C@@H](N)Cc1ccccc1)C(N)=O [Phe-Ala-NH2], the “Relative conversion (influence of protective group and adjacent amino acid, Table 4c)” value rises from 173% to 203%.

First: C[C@H](NC(=O)OCc1ccccc1)C(N)=O [Z-Ala-NH2]
Second: C[C@@H](NC(=O)OCc1ccccc1)C(N)=O [Z-D-Ala-NH2]
The “Relative conversion (influence of protective group and adjacent amino acid, Table 4c)” value of the first is higher: 62% for the first, 0% for the second.

First: C[C@H](N)C(=O)N[C@@H](C)C(N)=O [Ala-Ala-NH2] (H-Ala-Ala-NH2)
Second: CC(C)C[C@H](N)C(=O)N[C@@H](C)C(N)=O [Leu-Ala-NH2] (H-Leu-Ala-NH2)
The “Relative conversion (conversion of dipeptide amides, Table 4a)” value of the first is lower: 211% for the first, 217% for the second.

C[C@H](N)C(=O)N[C@@H](CC(N)=O)C(=O)O [Ala-Asn-OH] (H-Ala-Asn-OH) and C[C@H](N)C(=O)N[C@@H](CCC(N)=O)C(=O)O [Ala-Gln-OH] (H-Ala-Gln-OH) are the same in “Relative conversion (conversion of dipeptide amides, Table 4a)” value: 0% for the first, 0% for the second.

Compared with C[C@H](N)C(=O)NCC(N)=O [Ala-Gly-NH2] (H-Ala-Gly-NH2), CC(C)[C@H](N)C(=O)NCC(N)=O [Val-Gly-NH2] (H-Val-Gly-NH2) is lower in “Relative conversion (conversion of dipeptide amides, Table 4a)” value: 39% for the first, 22% for the second.

Compared with C[C@H](N)C(=O)N[C@@H](Cc1ccccc1)C(N)=O [Ala-Phe-NH2], CC(C)[C@H](N)C(=O)N[C@@H](Cc1ccccc1)C(N)=O [Val-Phe-NH2] (H-Val-Phe-NH2) is lower in “Relative conversion (conversion of dipeptide amides, Table 4a)” value: 218% for the first, 140% for the second.

Going from NCC(=O)N[C@@H](CC(N)=O)C(=O)O [Gly-Asn-OH] (H-Gly-Asn-OH) to NCC(=O)NCC(N)=O [Gly-Gly-NH2], the “Relative conversion (conversion of dipeptide amides, Table 4a)” value rises from 0% to 8%.

Going from NCC(=O)N[C@@H](Cc1ccccc1)C(N)=O [Gly-Phe-NH2] (H-Gly-Phe-NH2) to NC(=O)[C@H](Cc1ccccc1)NC(=O)[C@@H](N)CO [Ser-Phe-NH2], the “Relative conversion (conversion of dipeptide amides, Table 4a)” value rises from 214% to 217%.

First: NCC(=O)N[C@@H](Cc1ccc(O)cc1)C(N)=O [Gly-Tyr-NH2] (H-Gly-Tyr-NH2)
Second: NC(=O)CNC(=O)[C@@H](N)Cc1ccc(O)cc1 [Tyr-Gly-NH2]
The “Relative conversion (conversion of dipeptide amides, Table 4a)” value of the first is higher: 174% for the first, 54% for the second.

First: NC(=O)[C@H](Cc1ccccc1)NC(=O)[C@@H](N)Cc1cnc[nH]1 [His-Phe-NH2] (H-His-Phe-NH2)
Second: NC(=O)[C@H](Cc1ccccc1)NC(=O)[C@@H](N)Cc1ccc(O)cc1 [Tyr-Phe-NH2] (H-Tyr-Phe-NH2)
The “Relative conversion (conversion of dipeptide amides, Table 4a)” value of the first is lower: 137% for the first, 190% for the second.

First: CC(C)C[C@H](N)C(=O)NCC(N)=O [Leu-Gly-NH2] (H-Leu-Gly-NH2)
Second: CC(C)C[C@H](N)C(=O)N[C@@H](Cc1ccccc1)C(N)=O [Leu-Phe-NH2] (H-Leu-Phe-NH2)
The “Relative conversion (conversion of dipeptide amides, Table 4a)” value of the first is lower: 54% for the first, 203% for the second.

First: C[C@H](NC(=O)[C@@H](N)Cc1ccccc1)C(N)=O [Phe-Ala-NH2]
Second: NC(=O)CNC(=O)[C@@H](N)Cc1ccccc1 [Phe-Gly-NH2] (H-Phe-Gly-NH2)
The “Relative conversion (conversion of dipeptide amides, Table 4a)” value of the first is higher: 203% for the first, 51% for the second.

First: NC(=O)CNC(=O)[C@@H]1CCCN1 [Pro-Gly-NH2] (H-Pro-Gly-NH2)
Second: NC(=O)[C@H](Cc1ccccc1)NC(=O)[C@@H]1CCCN1 [Pro-Phe-NH2] (H-Pro-Phe-NH2)
The “Relative conversion (conversion of dipeptide amides, Table 4a)” value of the first is lower: 66% for the first, 158% for the second.

With NC(=O)[C@@H]1CCCN1C(=O)[C@@H](N)Cc1ccc(O)cc1 [Tyr-Pro-NH2] (H-Tyr-Pro-NH2) the “Relative conversion (conversion of dipeptide amides, Table 4a)” value was 0%.
